From article PMC7016952, “Characterization of the Menin-MLL Interaction as Therapeutic Cancer Target” (Cancers, 2020)

Experiments:
menin = biological target: T1, menin (Homo sapiens, UniProt O00255); assay: Isothermal Titration Calorimetry (ITC) on purified menin; format: binding
T1 construct: purified menin (1–615 with GST-tag cleaved as described above); GST (TEV cleavable) (N, cleaved yes); made in house; host or cells: E. coli BL21 (DE3)
T1 sequence (O00255 1-615 isoform O00255-1): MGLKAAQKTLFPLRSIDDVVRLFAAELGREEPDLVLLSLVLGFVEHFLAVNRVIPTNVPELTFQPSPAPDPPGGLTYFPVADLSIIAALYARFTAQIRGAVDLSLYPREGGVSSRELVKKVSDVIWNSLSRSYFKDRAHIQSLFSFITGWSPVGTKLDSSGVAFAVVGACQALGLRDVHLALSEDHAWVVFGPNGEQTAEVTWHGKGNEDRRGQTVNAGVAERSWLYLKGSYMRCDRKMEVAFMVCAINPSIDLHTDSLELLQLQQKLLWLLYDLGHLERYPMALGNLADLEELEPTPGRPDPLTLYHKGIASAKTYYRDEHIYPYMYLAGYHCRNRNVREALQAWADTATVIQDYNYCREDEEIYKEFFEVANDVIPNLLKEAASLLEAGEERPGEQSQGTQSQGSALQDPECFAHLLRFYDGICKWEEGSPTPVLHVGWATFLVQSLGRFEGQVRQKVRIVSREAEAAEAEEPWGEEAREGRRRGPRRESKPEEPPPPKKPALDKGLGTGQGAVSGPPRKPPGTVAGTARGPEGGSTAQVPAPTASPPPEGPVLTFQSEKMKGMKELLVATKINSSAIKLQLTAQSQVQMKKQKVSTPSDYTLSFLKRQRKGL
Protocol: Cloning of expression vectors for recombinant menin was performed as follows. […] Proteins were expressed in E. coli BL21 (DE3) following 0.1 mM IPTG induction at 17 °C overnight. For purification, cell pellets were resuspended in buffer A (50 mM Tris pH 7.5, 300 mM NaCl, 2 mM DTT). Cells were lysed using a high pressure Microfluidics apparatus and the cell debris pelleted by centrifugation. The supernatant was applied to a GST column (GE Healthcare, Chicago, IL, USA), washed with two column volumes of washing buffer A and eluted with Buffer B (Buffer A plus 15 mM reduced glutathione). If necessary, the purification tag was cleaved off with the addition of His-TEV protease (1:20 mass ratio) during overnight incubation in buffer A. His-TEV was removed by IMAC column rebinding and final protein purification of either GST-cleaved or uncleaved menin-1 was performed by size exclusion chromatography using a HiLoad 16/60 Superdex 200 (GE Healthcare) column in buffer C (Buffer A but 50 mM NACl).
The compound was dissolved in 100% DMSO to a concentration of 10 mM and subsequently diluted to a final concentration of 5 µM in ITC Buffer. Isothermal Titration Calorimetry (ITC) was performed at 25 °C in a Microcal PEAQ-ITC (Malvern Panalytical). […] Reference Power was set to 6 μcal/s. Data were collected on high feedback mode. Analysis was performed with a single binding site model in the Microcal PEAQ-ITC Analysis Software (Malvern Panalytical).

[1] = system: 401 cancer cell lines derived from 28 tissues of origin; assay: Cell line proliferation panel (OmniScreen, 401 cancer cell lines); format: cell-based
Protocol: The characterization of proliferation effects in 401 cancer cell lines was performed on the OmniScreen™ platform (CrownBio). Briefly, cells were seeded at the appropriate density for a five-day growth period and treated with BAY-155 (10 µM maximal concentration with 3.16-fold serial dilutions with 9 dose levels) or left untreated as control. For determination of viability the CellTiter-Glo® Luminescent Cell Viability Assay (Promega, Madison, WI, USA) was used. For absolute IC50 determination, a dose-response curve was fitted using a nonlinear regression model with a sigmoidal dose-response using GraphPad Prism 5.0. The surviving rate (%) = (LumTest-LumMedium control)/(LumNon-treated-LumMedium control) × 100%.

MCF7 xenograft = MCF7 xenograft efficacy; format: in vivo, mice
Protocol: Tumor cells were injected subcutaneously into the flanks of 6- to 9-week old animals. Efficacy studies in xenograft models were performed at Bayer or EPO GmbH (Berlin-Buch, Germany) using NMRI nu/nu, SCID, BALB/c Nude female mice or SCID male mice (VCaP tumors). All animal studies were conducted in accordance with the animal welfare laws and were approved by the State Office for Health and Social Affairs Berlin (LAGeSo). Experiments were run under the animal license B3600a0007. Compound treatment started at a predefined tumor size or burden or at a predefined day after cell inoculation. BAY-155 was administered orally (p.o.) at various doses and regorafenib, tamoxifen and enzalutamide (resuspended in PEG400/H2O 6/4 or PEG400/EtOH 9/1) were used as control treatment for RKO, MCF7 and VCaP xenografts, respectively. Subcutaneous tumor volumes were determined by caliper measurement.

menin-MLL interaction = biological target: T2, menin-MLL interaction (Homo sapiens, UniProt O00255); design: method as in PMID 31253180; conditions: read-out: Potency IC50 Menin-MLL binding; TR-FRET; previously reported; cited from earlier work
T2 construct: recombinant full length, His-tagged menin
T2 sequence (O00255 1-610): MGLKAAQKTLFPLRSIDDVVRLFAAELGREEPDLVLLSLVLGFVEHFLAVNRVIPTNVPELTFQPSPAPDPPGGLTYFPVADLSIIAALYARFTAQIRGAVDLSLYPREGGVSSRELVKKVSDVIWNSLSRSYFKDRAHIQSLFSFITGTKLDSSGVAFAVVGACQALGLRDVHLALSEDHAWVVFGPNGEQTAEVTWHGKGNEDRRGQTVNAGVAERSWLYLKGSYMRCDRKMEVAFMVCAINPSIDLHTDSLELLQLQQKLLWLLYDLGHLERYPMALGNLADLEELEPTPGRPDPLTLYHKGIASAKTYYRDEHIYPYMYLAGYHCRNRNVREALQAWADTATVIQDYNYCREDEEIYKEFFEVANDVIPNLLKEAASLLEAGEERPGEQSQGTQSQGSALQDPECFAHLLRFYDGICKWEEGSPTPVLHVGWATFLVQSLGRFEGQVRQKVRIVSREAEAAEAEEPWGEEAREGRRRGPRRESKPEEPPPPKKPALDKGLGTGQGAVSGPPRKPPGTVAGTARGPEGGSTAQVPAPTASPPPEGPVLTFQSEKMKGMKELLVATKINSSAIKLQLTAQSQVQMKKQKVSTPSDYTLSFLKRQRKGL

Cc1c(CN2CCC3(CC2)CN(c2ncnc4sc(CC(F)(F)F)cc24)C3)ccc2c1cc(C#N)n2CC(N)=O [BAY-155]
Kd (menin): 75 nM
stoichiometry factor N (menin; ITC): 1.06
proliferation of cancer models originating from breast, prostate or bone [1]: not affected
sensitivity of all tested MLL-AF4, MLL-AF9 and MLL-TD leukemia cell lines [1]: sensitive
IC50 ([1]; 120 h, read-out: IC50 in the vast majority of tested cell line models): > 10000 nM
sensitivity of KYSE-150 and RKO cells in the in vitro screen ([1]; IC50 in similar range to MV4;11 and MOLM-13): highly sensitive
share of liver-derived models with reduced proliferation ([1]; n = 33, IC50 below 5 µM taken as significant): 30%
share of blood cell-derived models with reduced proliferation ([1]; n = 73, IC50 below 5 µM taken as significant): 26%
tumor volume and tumor weight (MCF7 xenograft): no significant effects
IC50 (menin-MLL interaction): 8 nM
